Experimental data reported in US12583818B2 (DAEGU-GYEONGBUK MEDICAL INNOVATION FOUNDATION, priority 2020, dated 2026).
Like-named read-outs stand apart in the source and are kept apart here.

Legend:
[1] = system: A2780-SP cells (ovarian cancer stem cells); experiment: Sphere cell viability of A2780-SP cells (Cell-titer Glo); assay type: cell-based
Description: (§1) In order to confirm the inhibitory effect of the compound represented by formula 1 according to the present invention on the growth of MCF7, MCF7-SP, A2780 or A2780-SP cells, the following experiment was performed, and the results are shown in Tables 4 and 5 below.
On the other hand, A2780-SP cells (ovarian cancer stem cells) were plated in an Ultra-Low Attachment round bottom 96-well plate (corning) at the density of 1,500 viable cells per well, and cultured in cancer stem cell medium. The cancer stem cell medium is composed of the neurobasal medium supplemented with 20 ng/ml of bFGF, 10 ng/ml of EGF, […] of amphotericin B, HEPES, Glutamax and B27.
On the next day of culture, the cells were treated with the compound of Examples 57, and 69 to 144, followed by culture for 8 days. The medium containing the compound was added thereto once again on the 4th day. Sphere cell viability was evaluated by Cell-titer Glo (Promega, WC, USA), and luciferase activity was detected using a Tecan plate reader (Biocompare, USA).

[2] = system: A2780 cells (ovarian cancer cells); experiment: Cell viability of A2780 cells (Cell-titer Glo); assay type: cell-based; conditions: Homo sapiens
Description: as §1
In addition, A2780 cells (ovarian cancer cells) were plated in a 96-well plate at the density of 3000 viable cells per well, and cultured in RPMI-1640 medium supplemented with 10% FBS and 1% penicillin/streptomycin.
On the next day of culture, the cells were treated with the compound of Examples 57, and 69 to 144, followed by culture for 3 days. Cell viability was evaluated by Cell-titer Glo (Promega, WC, USA), and luciferase activity was detected using a Tecan plate reader (Biocompare, USA).

[3] = molecular target: T1, Pin1 (Homo sapiens, UniProt Q13526); experiment: Evaluation of Pin1 enzyme inhibitory activity (Sensolyte Green Pin1 assay kit); assay type: biochemical
T1 construct: purchased Anaspec
Procedure, shortened: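 Pin1 activity was measured with a fluorogenic kit assay (Sensolyte Green) using substrate prepared at 1 μM and protein at 50 μg/ml, both pre-mix concentrations. Compound working solutions were 100, 10, 1 or 0.1 μM, and reactions ran 2 h at room temperature in the dark, read at 490/520 nm. Inhibition was graded A–D by concentration.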

[4] = 192 h, sphere cell viability, culture for 8 days, read-out: A2780-SP
[5] = Table 5, read-out: the concentration (second list of b710, cell line not named; matches A2780-SP column)
[6] = 72 h, cell viability, culture for 3 days, read-out: A2780
[7] = A2780, Table 5, read-out: A2780 cell concentration
[8] = Table 2, read-out: concentration at which Pin1 inhibitory activity was exhibited
[9] = concentration at which the Pin1 enzyme activity is inhibited, 2 hours at room temperature, fluorescence 490 nm/520 nm, read-out: Pin 1 inhibition

T1 sequence (Q13526 whole entry): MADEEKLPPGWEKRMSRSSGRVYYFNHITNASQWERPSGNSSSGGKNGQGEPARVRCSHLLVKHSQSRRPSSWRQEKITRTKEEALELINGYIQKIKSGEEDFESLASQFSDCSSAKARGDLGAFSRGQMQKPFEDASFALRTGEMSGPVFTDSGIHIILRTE

Compound	IC50 [1, 4]	IC50 [1, 5]	IC50 [2, 6]	IC50 [2, 7]	IC50 [3, 8]	IC50 [3, 9]
Cc1nc(C)n(CCCOc2ccc(S(=O)(=O)NCCCc3c[nH]c4ccc(Cl)cc34)cc2)c1C [Example 176, N-(3-(5-chloro-1H-indol-3-yl)propyl)-4-(3-(2,4,5-trimethyl-1H-imidazol-1-yl)propoxy)benzenesulfonamide]	< 1 µM	< 1 µM	1 to 10 µM	< 10 µM	< 1 µM	< 1 µM
CN1CCN(c2ccnc(Nc3ccc(S(=O)(=O)NCCCc4c[nH]c5ccc(Cl)cc45)cc3)c2)CC1 [Example 133, N-(3-(5-chloro-1H-indol-3-yl)propyl)-4-((4-(4-methylpiperazin-1-yl)pyridin-2-yl)amino)benzenesulfonamide]	1 to 10 µM	–	> 10 µM	–	< 1 µM	< 1 µM
CN1CCN(CCCOc2ccc(S(=O)(=O)NCC3CCc4[nH]c5ccc(Cl)cc5c4C3)cc2)CC1 (centres unmarked) [Example 177, N-((6-chloro-2,3,4,9-tetrahydro-1H-carbazole-3-yl)methyl) 4-(3-(4-methylpiperazine-1-yl)propoxy)benzenesulfonamide]	< 1 µM	< 1 µM	1 to 10 µM	< 10 µM	< 1 µM	< 1 µM
CN1CCN(c2cc(F)cc(Oc3ccc(S(=O)(=O)NCCCc4c[nH]c5ccc(Cl)cc45)cc3)c2)CC1 [Example 137, N-(3-(5-chloro-1H-indol-3-yl)propyl)-4-(3-fluoro-5-(4-methylpiperazin-1-yl)phenoxy)benzenesulfonamide]	1 to 10 µM	–	> 10 µM	–	< 1 µM	< 1 µM
O=S(=O)(NCCCc1c[nH]c2ccc(Cl)cc12)c1ccc(CCCOc2ccncc2)cc1 [Example 185, N-(3-(5-chloro-1H-indole-3-yl)propyl)-4-(3-(pyridine-4-yloxy)propyl)benzenesulfonamide]	> 10 µM	–	> 10 µM	–	< 1 µM	< 1 µM
Cc1nccn1CCCOc1ccc(S(=O)(=O)NCCCc2c[nH]c3ccc(Cl)cc23)cc1 [Example 161, N-(3-(5-chloro-1H-indol-3-yl)propyl)-4-(3-(2-methyl-1H-imidazol-1-yl)propoxy)benzenesulfonamide]	< 1 µM	< 1 µM	> 10 µM	–	< 1 µM	< 1 µM
O=S(=O)(NCCCc1c[nH]c2ccc(Cl)cc12)c1ccc(CCCCn2ccnc2)cc1 [Example 148]	1 to 10 µM	–	> 10 µM	–	< 1 µM	< 1 µM
CN1CCN(CCCOc2ccc(S(=O)(=O)NCC3CCc4[nH]c5ccc(F)cc5c4C3)cc2)CC1 (centres unmarked) [Example 187, N-((6-fluoro-2,3,4,9-tetrahydro-1H-carbazol-3-yl)methyl)-4-(3-(4-methylpiperazin-1-yl)propoxy)benzenesulfonamide]	< 1 µM	< 1 µM	> 10 µM	–	< 1 µM	< 1 µM
CN1CCN(c2cc(Oc3ccc(S(=O)(=O)NCCCc4c[nH]c5ccc(Cl)cc45)cc3)cc(N3CCN(C)CC3)c2)CC1 [Example 130, 4-(3,5-bis(4-methylpiperazine-1-yl)phenoxy)-N-(3-(5-chloro-1H-indole-3-yl)propyl)benzenesulfonamide]	1 to 10 µM	–	1 to 10 µM	< 10 µM	< 1 µM	< 1 µM

Continued, values first:

IC50 [1, 4]	IC50 [1, 5]	IC50 [2, 6]	IC50 [2, 7]	IC50 [3, 8]	IC50 [3, 9]	Compound
< 1 µM	< 1 µM	> 10 µM	–	< 1 µM	< 1 µM	O=S(=O)(NCCCc1c[nH]c2ccc(Cl)cc12)c1ccc(OC[C@@H](O)CN2CCNCC2)cc1 [Example 174, (S)—N-(3-(5-chloro-1H-indol-3-yl)propyl)-4-(2-hydroxy-3-(piperazin-1-yl)propoxy)benzenesulfonamide]
< 1 µM	< 1 µM	1 to 10 µM	< 10 µM	< 1 µM	< 1 µM	C[C@H]1CN(CCCOc2ccc(S(=O)(=O)NCCCc3c[nH]c4ccc(Cl)cc34)cc2)CCN1 [Example 109, (S)—N-(3-(5-chloro-1H-indol-3-yl)propyl)-4-(3-(3-methylpiperazin-1-yl)propoxy)benzenesulfonamide]
< 1 µM	< 1 µM	> 10 µM	–	< 1 µM	< 1 µM	O=S(=O)(NCCc1c[nH]c2ccc(Cl)cc12)c1ccc(OCCCN2CCNCC2)cc1 [Example 159, N-(2-(5-chloro-1H-indol-3-yl)ethyl)-4-(3-(piperazin-1-yl)propoxy)benzenesulfonamide]
1 to 10 µM	–	> 10 µM	–	–	1 to 10 µM	O=S(=O)(NCCCc1c[nH]c2ccc(Cl)cc12)c1cccc(OCCCN2CCCCC2)c1 [Example 95, N-(3-(5-chloro-1H-indol-3-yl)propyl)-3-(3-(piperidin-1-yl)propoxy)benzenesulfonamide]
> 10 µM	–	> 10 µM	–	< 1 µM	< 1 µM	O=S(=O)(NCCCc1c[nH]c2ccc(Cl)cc12)c1ccc(OCCCn2cncn2)cc1 [Example 160, 4-(3-(1H-1,2,4-triazol-1-yl)propoxy)-N-(3-(5-chloro-1H-indol-3-yl)propyl)benzenesulfonamide]
< 1 µM	< 1 µM	1 to 10 µM	< 10 µM	< 1 µM	< 1 µM	C[C@@H]1CN(CCCOc2ccc(S(=O)(=O)NCCCc3c[nH]c4ccc(Cl)cc34)cc2)CCN1 [Example 108, (R)—N-(3-(5-chloro-1H-indol-3-yl)propyl)-4-(3-(3-methylpiperazin-1-yl)propoxy)benzenesulfonamide]
< 1 µM	< 1 µM	> 10 µM	–	< 1 µM	< 1 µM	O=S(=O)(Nc1ccccc1Cc1c[nH]c2ccc(Cl)cc12)c1ccc(OCCCN2CCNCC2)cc1 [Example 150, N-(2-((5-chloro-1H-indol-3-yl)methyl)phenyl)-4-(3-(piperazin-1-yl)propoxy)benzenesulfonamide]
< 1 µM	< 1 µM	> 10 µM	–	–	1 to 10 µM	C[C@H]1CN(CCCOc2ccc(S(=O)(=O)NCCCc3c[nH]c4ccc(Cl)cc34)cc2)CCN1C [Example 111, (S)—N-(3-(5-chloro-1H-indol-3-yl)propyl)-4-(3-(3,4-dimethylpiperazin-1-yl)propoxy)benzenesulfonamide]
< 1 µM	< 1 µM	1 to 10 µM	< 10 µM	< 1 µM	< 1 µM	CN1CCN(CCCOc2ccc(S(=O)(=O)NCCCc3c[nH]c4ccc(Br)cc34)cc2)CC1 [Example 154, N-(3-(5-bromo-1H-indol-3-yl)propyl)-4-(3-(4-methylpiperazin-1-yl)propoxy)benzenesulfonamide]
< 1 µM	< 1 µM	> 10 µM	–	< 1 µM	< 1 µM	O=S(=O)(NCCCc1n[nH]c2ccc(Cl)cc12)c1ccc(OCCCN2CCNCC2)cc1 [Example 168, N-(3-(5-chloro-1H-indazol-3-yl)propyl)-4-(3-(piperazin-1-yl)propoxy)benzenesulfonamide]
